Assay results: US20170224679A1, “Use of CXCR2 Antagonists For The Prevention and/or Treatment of Chemotherapy Induced Peripheral Neuropathy (CIPN)” (GlaxoSmithKline Intellectual Property Development Limited, priority 2014, published 2017)

Assays:
CXCR2 receptor [1] = target: T1, CXCR2 receptor (Homo sapiens, UniProt P25025); assay: Receptor binding assay ([125I] IL-8 SPA), CXCR2; set-up: expressed in transfected cells; host or cells: CHO cells (membranes)
T1 sequence (P25025 1-360): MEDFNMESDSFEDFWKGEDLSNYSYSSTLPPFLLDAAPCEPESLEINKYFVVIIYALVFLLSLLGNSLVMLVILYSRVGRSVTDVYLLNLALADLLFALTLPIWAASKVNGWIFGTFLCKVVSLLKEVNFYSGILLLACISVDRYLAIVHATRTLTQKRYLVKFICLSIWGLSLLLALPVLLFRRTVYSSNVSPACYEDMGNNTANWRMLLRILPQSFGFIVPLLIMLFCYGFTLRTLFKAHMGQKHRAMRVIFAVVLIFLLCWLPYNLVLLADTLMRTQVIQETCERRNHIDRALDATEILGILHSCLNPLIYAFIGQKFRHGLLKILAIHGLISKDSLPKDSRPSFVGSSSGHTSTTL
Experimental: High levels of recombinant human CXCR1 and CXCR2 receptors were individually expressed in Chinese hamster ovary (CHO) cells as described in Holmes, et al., Science, 1991, 253, 1278, incorporated herein to the extent required to perform the present assay. The Chinese hamster ovary membranes were prepared according to Haour, et al., J. Biol. Chem., 249 pp 2195-2205 (1974), incorporated herein to the extent required to perform the present assay, except that the homogenization buffer was changed to 40 mM Tris-HCL pH 7.5 containing 1 mM MgSO4, 0.5 mM EDTA (ethylene-diaminetetra-acetic acid), 1 mM PMSF (α-toluene-sulphonyl fluoride), 2.5 mg/L Leupeptin and 0.1 mg/ml Aprotinin. Membrane protein concentration was determined using Bio-Rad Reagent using bovine serum albumin as a standard. All binding assays were conducted using Scintillation Proximity Assay (SPA assay) using wheatgerm agglutinin beads in a 96-well micro plate (optiplate 96, Packard) format. The CHO-CXCR2 and CHO-CXCR1 membranes were pre-incubated with the beads in binding buffer; 20 mM Bis Tris propane, pH 8 containing 25 mM NaCl, 1 mM MgSO4, 0.1 mM EDTA at 4° C. for 30 min prior to assay. The compound was diluted in 100% DMSO at 20 times the final concentration (final 1 nM to 1000 nM and 5% DMSO). […] At the end of the incubation the plates were spun for 5 min at 2000 RPM, and counted in a Top Count counter.

Sprague-Dawley rats = assay: CXCR2 antagonist effect on repeat dosing oxaliplatin induced sensory injury rat; conditions: oxaliplatin-treated rats, 20 mg/kg p.o. b.i.d. 4 weeks
Experimental: Male Sprague-Dawley rats (109-167 g, ˜5weeks old) were housed in cages in groups of three in a controlled environment of constant temperature and moisture (temperature: 25±3° C., light: dark cycle of 12:12 hours) with food (25 g/rat/day of LabDiet 5053) and water available ad libitum.
MC (Sigma Cat #423238) was made up in water at 1% (w/v) (1 g per 100 mL water) and left on a stirrer until completely dissolved. The formulation was prepared every 6-8 days in 400-700 mL each time and stored at 4° C. protected from light. The dosing volume used was 10 mL/kg to give a 20 mg/kg p.o. dose. Vehicle treated animals were dosed b.i.d. with 1% MC w/v at 10 mL/kg p.o.
A fresh solution was prepared before every injection. Control vehicle animals were treated with 5% w/v Gluclose at 5ml/kg. Glucose (Sigma Aldrich Cat #G7021) was made up in milli-Q water at 5% (w/v) (5 g per 100 mL water) and left on a stirrer until completely dissolved.
Body weight tracking: The bodyweights of rats were measured twice a week for 4 weeks on Days 1, 3, 9, 11, 16, 18, 23, and 25. […]
Rats were anesthetized with chloral hydrate (350 mg/kg, 3.5 mL/kg, i.p.). […] The right sciatic nerve was carefully identified and conduction velocity was measured by recording action potentials from an electrode placed between the second and third digits as described by Jamieson et al., Br. J. Cancer, 88(12):1942-7 (2003), and electrically stimulating the nerve (5V, 0.5 s, single-wave pulses) via a platinum wire electrode at the sciatic notch and ankle. The length between the sciatic notch and ankle was measured.
The nerve conduction velocity was calculated as the length between sciatic notch and ankle divided by the difference between the time latencies at the stimulation sites [latency (sciatic notch)−latency (ankle)].
A 1 cm segment of the left sciatic nerve (distal end) was located and carefully dissected out. […] The ratio of inner area over entire area of nerve fibers of sciatic nerves was then calculated as an indicator of thickness of myelin sheath of nerves.

CXCR2 receptor [2] = target: T1, CXCR2 receptor; assay: CXCR2 Tango assay; type: cell-based; set-up: fused on or other part: TEV protease cleavage site and Gal4-VP16 transcription factor fused to the receptor (Invitrogen Tango construct); no part of the key; conditions: Tango reporter gene, 80 nM hCXCL1; read-out: pIC50 against the CXCR2 receptor (converted)
From the text: The assay measures ligand-induced activation of the receptor CXCR2 in a stable cell line containing the recombinant human CXCR2 linked to a TEV protease site and a Gal4-VP16 transcription factor (Invitrogen). Ligand binding to the receptor results in the recruitment of arrestin proteins (tagged with protease) to the receptor and triggers the release of a tethered transcription factor. The transcription factor enters the nucleus and activates the transcription of the reporter gene. The ability of a compound to inhibit CXCR2 activation is indirectly assessed by measuring the reporter gene activity.
A vial of cryopreserved cells was removed from liquid nitrogen and rapidly thawed in a water bath at 37° C. with gentle agitation. The cell contents were collected and resuspended in Assay Medium at a density of ˜200,000 cells/ml. All test compounds were dissolved in DMSO at a concentration of 10 mM and then were serially diluted to generate a 10-point dose response curve into 384-well assay plate (Greiner 781090) using an Echo (Labcyte) concentration-response program (50 nl/well). The cell-free, un-stimulated and positive controls were loaded with 50 nl/well pure DMSO to ensure that the DMSO concentration was constant across the plate for all assays. Using Multi-drop Combi (Thermo) with standard cassette, 50 μl of Assay Medium was added to cell-free control wells in compound-containing assay plate; 50 μl of the cell suspension without hCXCL1 (a CXCR2 ligand) was added to un-stimulated control wells (10,000 cells per well); and 50 μl of the cell suspension with 80 nM hCXCL1 was added to the rest of wells of the assay plate (10,000 cells per well). The cells were incubated overnight at 37° C./5% CO2·10 μl of 6× substrate mixture (LiveBLAzer™-FRET B/G substrate (CCF4-AM) Cat #K1096 from Invitrogen, Inc.) was added to each well using Multi-drop Combi (Thermo) with small-tube cassette and the plate was incubated at room temperature for 2 h in the dark. The plate was then read on EnVision using one excitation channel (409 nm) and two emission channels (460 nm and 530 nm).
The blue/green emission ratio (460 nm/530 nm) was calculated for each well by dividing the background-subtracted Blue emission values by the background-subtracted Green emission values. The dose response curve was based on sigmoidal dose-response model. All ratio data was normalized based upon the maximum emission ratio of positive control (hCXCL1) and minimum emission ratio of negative control (DMSO) on each plate.

CXCR2 receptor [3] = target: T1, CXCR2 receptor; assay: Human whole blood assay version i) (CD11b, CXCL1 stimulated); type: cell-based; set-up: Assay d) measures the cellular functional activity to the native expressed human CXCR2 in whole blood; endogenous in cells; host or cells: human whole blood (neutrophils); conditions: 10 nM CXCL1, neutrophil CD11b, read-out: pIC50 against the CXCR2 receptor (converted)
Experimental: Human blood was obtained from healthy consenting adults by trained medical professionals by venipuncture in a 10 ml syringe containing 225 μI of 0.25 M EDTA and filling with 7 ml of blood (maintained at 37° C. throughout the CXCL1 stimulation).
The test compounds were dissolved in 100% DMSO to a concentration of 10 mM and diluted to 12× the assay concentration in 1.2% DMSO (final concentration DMSO of 0.1%).
Assay: 100 μI of whole blood was added to assay tubes or 96 well U-bottom clear plates containing 10 μI of 1.2% DMSO (assay concentration of 0.1%) or 10 μI of compound dissolved in 1.2% DMSO (assay concentration range of 0.1 μM to 10 μM), then incubated for 10 minutes at 37° C., followed by addition of 10 μI of 0.1% BSA in DPBS (negative controls) or 10 μI of 120 nM CXCL1 (GROα, Prepro Tech, Inc) dissolved in 0.1% BSA in DPBS (assay concentration of 10 nM which is the EC80 for CXCL1) and incubated at 37° C. for an additional 10 min with gentle agitation before being placed on ice and assay terminated by adding 250 μI of CellFix or 250 μI of 3.7% v/v paraformaldehyde (BD Biosciences). […] Before being analyzed using an LSR flow cytometer (Becton-Dickinson) or FACS Canto II, cells were stained for 10 minutes at 4° C. with 10 μI of LDS-751 (Molecular Probes), a nucleic acid stain, allowing a cytometer threshold setting to exclude red blood cells. […]

Row | SMILES | IC50 (CXCR2 receptor [1]; [125I] IL-8 binding, CHO-CXCR2 membranes, read-out: pIC50 against the CXCR2 receptor (converted)) | selectivity for CXCR2 over CXCR1 (CXCR2 receptor [1]; receptor binding assay a)) | sciatic nerve conduction velocity between sciatic notch and ankle (Sprague-Dawley rats; Day 29-31, mean±SEM) | ratio of inner area over entire area of the nerve fibers (myelin sheath thickness) (Sprague-Dawley rats; left sciatic nerve, mean±SEM) | IC50 (CXCR2 receptor [2]) | IC50 (CXCR2 receptor [3])
1 | O=C(Nc1ccc(Cl)c(S(=O)(=O)N2CCNCC2)c1O)Nc1cccc(F)c1Cl [Compound of Formula (A), 1-(4-chloro-2-hydroxy-3-(piperazin-1-ylsulfonyl)phenyl)-3-(2-chloro-3-fluorophenyl)urea] | 15.8 nM | 188 fold | 40.83±1.45 m/s | 0.17±0.01 | 0.631 nM | 2000 nM
2 | CN1CCC(C)(S(=O)(=O)c2c(Cl)ccc(NC(=O)Nc3cccc(F)c3Cl)c2O)CC1 [Compound of Formula (D), 1-(4-chloro-3-((1,4-dimethylpiperidin-4-yl)sulfonyl)-2-hydroxyphenyl)-3-(2-chloro-3-fluorophenyl)urea] | – | – | – | – | 1.26 nM | 3980 nM
